Compound `CCC1=NC(=NOC(=O)NC)SC1(C)C` displayed a melting point of 98 to 100 °C.
The value for `O=C(O)c1ccc2c(c1)nc(-c1ccc(OCc3cc(Cl)ccc3-c3ccc(Cl)cc3)cc1)n2C1CCCCC1` was 243 to 244 °C; that for `COc1cc2onc(N)c2cc1Br` was 226 to 227 °C.
In the case of `CC1(C)C=C(c2ccccn2)c2cc(C#N)ccc2O1` it was 106 to 108 °C.
In the case of `O=C(CCC#Cc1ccccn1)Nc1cccc(F)c1` it was 110 to 114 °C.
In turn, `c1ccc(C(CC2CC3CCN2CC3)c2ccccc2)cc1` (stereo not given) gave a melting point of 87.5 to 89 °C.
In the case of `CN1CN(C)C(=N[N+](=O)[O-])N(Cc2ccc(Cl)nc2)C1` it was 116 to 117 °C.
The value for `CCN1CC=C(c2ccc(Nc3ncc4ccc(-c5ccccc5N(C)S(C)(=O)=O)n4n3)c(OC)c2)CC1` was 121 to 123 °C; that for `O=C1NC(=O)c2c(F)cccc21` was 176 to 179 °C; that for `C=CCc1c(O)cc(Cl)c2c(-c3ccccc3F)noc12` was 211 to 212 °C.
The value for `O=C(OCC1OC(OCc2ccccc2)C(OCc2ccccc2)C(OCc2ccccc2)C1OCc1ccccc1)c1ncc[nH]1` (stereo not given) was 105 to 108 °C.
`COc1ccc(N2C(=O)c3ccc(Cl)cc3C2CC(=O)O)cc1` (stereo not given) showed a melting point of 250 to 251 °C.
The value for `COc1ccccc1-c1cccc2nc(Nc3cc(OC)c(OC)c(OC)c3)oc12` was 185 to 187 °C; that for `Cc1c(C(N)=O)c2ccccc2n2c(N3CCCC3)nc(-c3noc(C(C)C)n3)c12` was 173 to 174 °C.
In the case of `O=C1Nc2ccccc2SCC1c1ccc(Cl)cc1` (stereo not given) it was 180 °C; in that of `CCOC(=O)c1c(C)nc2cc(OC)c(OC)cc2c1-c1ccc(OC)c(OC)c1`, 147 to 148 °C; in that of `CNC(=NCCCSCn1cncc1C)NC#N`, 156 to 158 °C.
The value for `Cc1[nH]c2ccccc2c1CCCN1CCC(c2noc3ccccc23)CC1` was 110 to 112 °C; that for `O=CC1CC(n2ccc(=O)[nH]c2=O)OC1COC(c1ccccc1)(c1ccccc1)c1ccccc1` (stereo not given) was 100 °C.
The compound `CC(C)(C)[Si](C)(C)OC1CN(c2ccc([N+](=O)[O-])cc2F)C1` came in with a melting point of 98.5 to 99.5 °C.
The value for `OCC1OC(n2cnc3c(Nc4ccccc4)cc(Cl)nc32)C(O)C1O` (stereo not given) was 157 to 160 °C; that for `CCOC(=O)c1c(C)nn(-c2ccccc2N)c1C` was 59 to 61 °C; that for `O=C(c1cncc(Br)c1)N1CCOCC1` was 49 to 51 °C.
The value for `Cc1cccc(N2C(=S)SC(C)C2(C)O)n1` (stereo not given) was 129 °C.
The value for `CCc1noc(-c2cn(-c3ccc(Cl)cn3)cn2)n1` was 224 to 226 °C; that for `Cc1nnc(-c2ccc3occ(C#N)c3c2)o1` was 188 to 189 °C; that for `COc1cc(OC)cc(OC(=O)NC(=O)C(c2ccccc2)c2ccccc2)c1` was 150 to 152 °C.
On to `O=c1[nH]c2ccncc2c(=O)o1`, for which the melting point amounted to 180 °C.
The value for `O=S(=O)(C=Cc1ccccc1)N1CCc2c([nH]c3ccccc23)C1c1ccc2c(c1)OCO2` (stereo not given) was 191 to 192 °C.
For `CCCc1cc(Cl)cc2nc(Cc3ccc(OC)c(OC4CCCC4)c3)oc12`, the melting point lay in the range of 54 to 55 °C.
The value for `CCCn1c(=O)c2c(nn3cc(C4CC4)[nH]c23)n(Cc2ccccc2)c1=O` was 264 to 265 °C.
In the case of `CCOC(=O)/C=C/c1c(-c2ccccc2)c2c3ccccc3cnn2c1C(C)C`, the melting point lay within 158 to 159 °C.
On to `O=C(Cn1c(=O)oc2ccc(Cl)cc21)c1ccc(C(F)(F)F)cc1`, for which the melting point was 188 to 189 °C.
`COc1ccc(-c2ccc(C#CC(=O)O)s2)cc1C(C)(C)C` came in with a melting point of 124 to 126 °C.
The value for `O=C(O)C1Cc2ccccc2N1C(=O)CCS` (stereo not given) was 140 to 142 °C; that for `Cc1ccc(-c2nc3ccccc3o2)cc1` was 113 to 114 °C.
In the case of `O=C1C(=O)N(c2ccc(F)cc2)c2ccc(F)cc21` it was 180 to 190 °C; in that of `CC(C)(C)OC(=O)CCON=C(C(=O)O)c1ccco1`, 74.7 to 77.2 °C; in that of `COC(=O)CCC(=O)c1ccc(CCNC(C)=O)cc1`, 120 °C.
The value for `COc1cc(Nc2c(C#N)cnc3cc4cc(OCCCCl)c(OC)cc4cc23)c(Cl)cc1Cl` was 220 to 223 °C.
`Cn1cc(-c2cnccn2)cc(Br)c1=O`: the melting point was in the range of 196 to 197 °C.
For the compound `CCCC(=O)NCCN1CCOc2ccc(OC)cc21`, the melting point lay in the range of 73 to 74 °C.
In the case of `CS(=O)(=O)Nc1cccc(Nc2nc(OC3CCCC3)c3nc[nH]c3n2)c1` it was 137 to 140 °C.
The value for `CC1(C)CC(O)c2cc(OCc3ccccc3)ccc2O1` (stereo not given) was 83 to 84 °C; that for `CCc1cccc(CC)c1NCc1n[nH]c(=S)n1C` was 117 to 121 °C.
The value for `CCCCCC(C)C(C)c1cc(OC)c2c(c1)OC(C)(C)C1=C2CN(C(=N)OC)CC1` (stereo not given) was 134 to 136 °C.
In turn, `O=Cc1ccc(-c2cn(S(=O)(=O)c3ccccc3)c3ccccc23)o1` showed a melting point of 140 °C.
The value for `O=C1NC(=O)c2c1c(-c1ccccc1Cl)cc1sc3ccc(O)cc3c21` was 311 to 313 °C; that for `NC(=O)C1=CCCc2cc(Sc3cccc(F)c3)cc(F)c21` was 213 to 214 °C.
The value for `Cc1ccc(S(=O)(=O)OCCn2c(=NC(=O)C(F)(F)F)sc3cc(C(F)(F)F)ccc32)cc1` was 163 °C; that for `COc1cc2c3c(cccc3c1CNC(C)=O)C(=O)N(O)C2=O` was 237 to 239 °C.
For the compound `Cc1cc(NCc2ccc(Cl)cc2)nc(SCC#N)n1`, the melting point is 99 to 101 °C.
The value for `CCCc1cc(F)c2oc(Cc3ccc(OC)cc3)c(C)c2c1OC(C)=O` was 85 to 88 °C.
`CCOC(=O)C(O)Cc1ccc(OCCNC(=O)c2ccc(-c3ccccn3)cc2)cc1` (stereo not given) showed a melting point of 97 to 99 °C.
In the case of `NNc1cc(=O)[nH]c(N)n1` it was 314 to 315 °C; in that of `CCCCCCCCCCNC(=O)CCCCC(=O)OO`, 77 to 85 °C.
In the case of `COc1cc2c(cc1OC)CC(NC(=O)C1CCCN1C(C)=O)CC2` (stereo not given) it was 63 to 65 °C.
In the case of `Nc1cc(S(=O)(=O)c2ccccc2)c([N+](=O)[O-])c2cccnc12` it was 211 to 213 °C; in that of `O=c1[nH]c2ccccc2n1C1=CCN(C2CCC(c3ccc(F)cc3)(c3ccc(F)cc3)CC2)CC1`, 235 to 238 °C; in that of `COC(=O)Cc1cc(O)n(C)n1`, 148 °C.
As to `O=C(CN1CCCCC1)Nc1ccc2c(c1)C(=O)c1cc(NC(=O)CN3CCCCC3)ccc1C2=O`, the melting point stood at 243 °C.
The value for `CCOC(=O)COc1ccc(-c2ccc(Cl)c(C(=O)NCC34CC5CC(CC(C5)C3)C4)c2)cc1` was 136 to 140 °C.
In the case of `CCc1cc(C(=O)c2ccccc2Cl)c(-n2c(CNC(=O)c3cc4ccccc4[nH]3)nnc2C(C)C)s1` it was 209 to 211 °C.
The value for `CCCCCCc1ccc(C(=O)N2CCOCC2)cc1[N+](=O)[O-]` was 68.5 to 71.5 °C; that for `O=C(c1nccs1)c1cnn2c(-c3cccnc3)ccnc12` was 262 to 264 °C; that for `O=[N+]([O-])c1ccc(O)c(-c2ccsc2)c1` was 130 °C.
`CC(=O)OC1CSC(Oc2cncc(-c3ccnc(F)c3)c2)C(OC(C)=O)C1OC(C)=O` (stereo not given) registered a melting point of 122 to 125 °C.
In the case of `CCCC(=O)Nc1ccc(N2CCC(NC[C@H](O)COc3cccc4[nH]c(=O)[nH]c34)CC2)cc1` it was 190 to 201 °C; in that of `Cc1nc(N)ccc1-c1ccccc1`, 110 to 113 °C.
The compound `Cc1cc(OCc2ccccc2)cc(OCC2CCCCC2)c1C(=O)O` had a melting point of 127 to 128 °C.
Turning to `O=c1[nH]nc(-c2c(Cl)ccc3cc(Cl)cnc23)o1`, the melting point turned out to be 87 °C.
In the case of `CCCNS(=O)(=O)c1cc(C(=O)CBr)ccc1Cl` it was 96 °C; in that of `COc1ccc(C(=O)C2(Br)CCCCC2)c(Cl)c1Cl`, 94 to 95 °C.
In the case of `CCC(=O)Nc1ccc(Cl)c(COc2cccn3c(Br)c(C)nc23)c1Cl` it was 205 to 207 °C; in that of `CCC1CCC2(C)C(=CCC3C4CC(O)C(=O)C4(C)CCC32)C1` (stereo not given), 166 to 168 °C; in that of `COCCN(CCOC)c1nc2cc(-c3ccc(Cl)cc3)nnc2c2ccccc12`, 123 to 125 °C.
The value for `CCOC(=O)c1cnc2ccc(OC)nc2c1Cl` was 98 to 100 °C; that for `O=CC(=Cc1ccc(OCc2ccc(Cl)cc2)cc1)C(C=O)=Cc1ccc(OCc2ccc(Cl)cc2)cc1` was 208 to 209 °C.
`CCCCCN(C(=O)Oc1ccc(C(=O)O)cc1)c1ccc2c(c1)C(C)(C)CCC2(C)C` registered a melting point of 100 to 102 °C.
In the case of `COc1c(N2CCC(O)C(CC(C)C)C2)c(F)cc2c(=O)c(C(=O)O)cn(C3CC3)c12` (stereo not given) it was 190 to 192 °C; in that of `COc1ccc(CN2C(=O)C(C)(c3ccc(F)cc3Cl)c3cc(Cl)ccc32)c(OC)c1` (stereo not given), 166 °C; in that of `CCOC(=O)c1oc2ccc(Cl)cc2c1CN(C)CC(OC)OC`, 58 to 60 °C.
The value for `CCCCOc1cc(CC(=O)O)n(Cc2ccc(Cl)cc2Cl)n1` was 105 to 108 °C.
In the case of `COc1ccccc1N1CCN(CCCNC(=O)NC23CC4CC(CC(C4)C2)C3)CC1` it was 181 to 182 °C; in that of `c1ccc(CN2CCC3(CC(c4ccccc4)=NO3)C2)cc1` (stereo not given), 31 to 40 °C; in that of `CC(=O)NCc1ccc(C(C)(C)C(=O)O)cc1`, 166 to 169 °C.
In turn, `COc1cc(-c2nc3cc(F)ccc3s2)ccc1OC(=O)c1cccc([N+](=O)[O-])c1` registered a melting point of 190 °C.
In the case of `CNc1nc(-c2cccc(NC(=O)c3cccc(OCc4ccccc4)c3)c2)c2cc(OC)c(OC)cc2n1` it was 110 to 112 °C.
The value for `O=C1SCCN1Cc1ccc([N+](=O)[O-])cc1` was 146 to 148 °C; that for `CN1CCC(C2CCN(c3ncc4ncnc(Nc5ccc(F)c(Cl)c5)c4n3)CC2)CC1` was 159 to 162 °C.
